The values that follow come from patent US20250136617A1 (The Regents of the University of Colorado, A Body Corporate, priority 2022, published 2025).

For the test, the target named is CXCR4 (Homo sapiens, UniProt P61073). The test is described as follows: β-arrestin recruitment, 384-well, Tango CXCR4-bla U2OS cells, normalized to SDF-1α. It is filed as cell-based. More on the design: host or cells: U2OS. As to conditions: for ß-arrestin recruitment Emax (%): normalized to maximal SDF-1α response; for Emax: U2OS, read-out: TANGO β-arrestin Emax (%). As for the experimental part: Tango™ CXCR4-bla U2OS Cells (Invitrogen; K1779) were used for (β-arrestin recruitment assays and maintained as a monolayer culture in McCoy's 5a (Corning; 10-050-CV) supplemented with 10% dialyzed Fetal Bovine Serum (Gibco; 26400-044), 0.1 mM MEM Non-essential amino acids solution, 25 mM HEPES solution (Corning; 25-060-CI), 1 mM Sodium Pyruvate (Gibco; 11360-070), 200 μg/mL Zeocin selection reagent (Gibco; R25001), 50 μg/mL Hygromycin B (Gibco, 10687010), and 100 μg/mL Geneticin (G418 Sulfate) (Gibco, 10131035). U2OS cells were subcultured twice weekly by 0.05% Trypsin-EDTA treatment (Corning; 25-051-CI) and passaged to continue exponential growth phase for cell signaling assays. All cell cultures were maintained in cell culture incubators at 37° C. with 5% CO2. CHO-K1 CXCR4 cells (DiscoverX, Fremont, CA, USA) were used for cAMP inhibition assays and maintained as a monolayer culture in DMEM/F12 (Corning; 10-091-CV) supplemented with 10% Fetal Bovine Serum (Corning; 35-011-CV) and 100IU penicillin, […] streptomycin sulfate (Corning; 30-002-CI) and […] G418 (Gibco; 101310350. Cells were subculture 2 times weekly by o.o5% Trypsin-EDTA treatment (Corning; 25-051-CI) and passaged to continue exponential growth phase for cell signaling assays. All cell cultures were maintained in cell culture incubators at 37° C. with 5% CO2.CEM-CCRF cells (ATCC CCL-119) were used in both the migration and calcium flux assays and were cultured in growth media consisting of RPMI 1640 (Corning; 10-040-CV) supplemented with 10% Fetal Bovine Serum (Corning; 35-011-CV), and 100 IU penicillin, […] streptomycin sulfate (Corning; 30-002-CI). Cells were maintained in suspension and sub-cultured twice weekly to maintain cell densities between 0.8×10^6 cells/mL and 2.5×10^6 cells/mL to maintain exponential growth phase. Cells were harvested for use in migration and calcium flux assays at 2.0×10^6 cells/mL to 2.5×10^6 cells/mL and resuspended in assay media to desired density for respective experiments.
CXCR4, sequence (P61073 whole entry): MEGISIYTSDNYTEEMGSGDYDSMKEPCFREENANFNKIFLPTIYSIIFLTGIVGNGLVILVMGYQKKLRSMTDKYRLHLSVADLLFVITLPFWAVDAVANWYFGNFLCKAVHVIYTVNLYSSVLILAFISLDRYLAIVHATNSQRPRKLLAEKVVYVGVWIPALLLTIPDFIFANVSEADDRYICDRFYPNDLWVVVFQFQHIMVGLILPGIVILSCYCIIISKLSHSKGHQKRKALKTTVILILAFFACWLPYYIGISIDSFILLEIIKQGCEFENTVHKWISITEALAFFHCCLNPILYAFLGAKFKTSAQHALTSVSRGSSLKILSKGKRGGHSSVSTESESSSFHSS
Tango™ CXCR4-bla U2OS Cells were resuspended in assay media consisting of DMEM (Corning; Corning, NY) supplemented with 1% dialyzed Fetal bovine serum, 0.1 mM MEM Non-essential amino acids solution, 25 mM HEPES solution (Corning; Corning, NY), 1 mM Sodium Pyruvate and 100 IU penicillin, […] streptomycin sulfate (Corning; Corning, NY) at a density of 3.0×10^5 cells/ml. Assay media FreeStyle 293 expression Medium (Gibco; 12338018) was used for testing the thiadiazine scaffold CXCR4 agonists. Cells suspension was dispensed at 30 μl per well into assay plate and incubated overnight in a cell culture incubator at 37° C. with 5% CO2. […] Following overnight incubation, LiveBlazer FRET B/G Loading Kit (Invitrogen; K1095) working reagent was prepared according to supplier guidelines and 6 μl of solution was dispensed into each well; 8 μL of solution for testing the thiadiazine scaffold CXCR4 agonists. Assay plate was covered and incubated in a dark place for two hours and Fluorescence Intensity was measured using the BMG LABTECH CLARIOstar Plus (BMG LABTECH Inc., Cary, NC) according to the LiveBlazer FRET B/G Loading Kit excitation and emission measurement guidelines.
Results are expressed as mean±SD for 3 to 5 independent experiments. Statistically significant differences in gene expression between two groups were assessed by Student's T-test, ANOVA with an appropriate post hoc test was be used for multiple comparisons. P<0.05 was considered to be statistically significant. All concentration response curves were analyzed to determine EC50 and Emax using the following equation:
where Y is the normalized response (0-100%), X is the log of concentration of compound tested, and the Hill slope is equal to 1.0% and 100% activity are specific to each assay. […]
A general note: Activated receptors often draw arrestin, which recruitment assays turn into a signal.

[1] abbreviates: normalized to SDF-1, read-out: TANGO β-arrestin EC50.
Setting [2] is: normalized to SDF-1α, read-out: ß-arrestin recruitment EC50.

Where two headings read alike, the source gives them in different places. Some results are limits rather than exact numbers.

By EC50 is commonly meant the concentration needed to bring the measured effect to its halfway point. One may read the Emax as the maximal effect, on the per cent scale that the assay sets.

For the compound `COc1ccccc1-c1nnc2n1N=C(c1ccccc1)CS2`, the half-maximal effective concentration (EC50) under setting [1] was > 80 µM.

For `COc1ccccc1-c1nnc2n1N=C(c1ccc([N+](=O)[O-])cc1)CS2`, the concentration for a half-maximal effect (EC50) under setting [2] was > 80 µM.

As to `COc1ccc(C2=Nn3c(nnc3-c3ccccc3OC)SC2)cc1` [Entry 1], the “ß-arrestin recruitment Emax (%)” value is 45%. Moreover, the “TANGO β-arrestin Emax (%)” value (normalized to SDF-1) is recorded as “B (35 < B < 70)”. Also, under setting [1], the EC50 was < 5 µM. For the same compound, the EC50 under setting [2] turned out to be 0.054 µM.

Turning to `COc1ccccc1-c1nnc2n1N=C(c1ccc(C)cc1)CS2` [Entry 17], the Emax (normalized to SDF-1) was in the range of 35 to 70%. Further, the EC50 under setting [1] was < 5 µM.

As for `CCc1ccc(C2=Nn3c(nnc3-c3ccccc3OC)SC2)cc1` [Entry 18], the Emax (normalized to SDF-1) was 35 to 70%. The EC50 under setting [1] is < 5 µM.

Consider `CCCCc1ccc(C2=Nn3c(nnc3-c3ccccc3OC)SC2)cc1` [Entry 19], for which the “ß-arrestin recruitment Emax (%)” value is 12%. Further, the “TANGO β-arrestin Emax (%)” value (normalized to SDF-1) is “C (C ≤ 35)”. Under setting [1], the EC50 fell in the range of 5 to 50 µM. Further, the EC50 under setting [2] was 14.1 µM.

For `COc1ccccc1-c1nnc2n1N=C(c1ccc(-c3ccccc3)cc1)CS2` [Entry 20], the Emax (normalized to SDF-1) is > 70%. Moreover, the EC50 under setting [1] fell in the range of 5 to 50 µM.

For the compound `COc1ccccc1-c1nnc2n1N=C(c1ccc(N3CCOCC3)cc1)CS2` [Entry 25], for the setting “normalized to SDF-1”, the Emax was > 70%. The EC50 under setting [1] lay in the range of 5 to 50 µM.

With `CCOc1ccccc1-c1nnc2n1N=C(c1ccc(N)cc1)CS2` [Entry 26], the concentration for a half-maximal effect (EC50) under setting [1] was > 10 µM.

For the compound `CCOc1ccccc1-c1nnc2n1N=C(c1ccc(N3CCC3)cc1)CS2` [Entry 28], for the setting “normalized to SDF-1”, the Emax is 35 to 70%. In addition, the 50% effective concentration (EC50) under setting [1] is < 5 µM.

For `CCOc1ccccc1-c1nnc2n1N=C(c1ccc(NC(=O)C3CCCC3)cc1)CS2` [Entry 33], under setting [1], the EC50 was > 10 µM.

As to `CCOc1ccccc1-c1nnc2n1N=C(c1ccc(NC3CCC3)cc1)CS2` [Entry 44], under “normalized to SDF-1”, the Emax was > 70%. The EC50 under setting [1] is < 5 µM.

Consider `c1ccc(C2=Nn3c(nnc3-c3ccccc3)SC2)cc1` [Entry 50], for which the EC50 under setting [1] was > 80 µM.

For `COc1ccc(C2=Nn3c(nnc3-c3ccccc3)SC2)cc1` [Entry 51], the Emax (normalized to SDF-1) is 35 to 70%. Also, the EC50 under setting [1] lay in the range of 5 to 50 µM.

Take `COc1ccc(C2=Nn3c(nnc3-c3ccccc3)SC2)cc1OC` [Entry 52]: under setting [1], the EC50 was > 80 µM.

`COc1ccc(C2=Nn3c(nnc3-c3ccccc3OC)SC2)c(OC)c1` [Entry 54]: the Emax (normalized to SDF-1) was 35 to 70%. For the same compound, the EC50 under setting [1] is < 5 µM.

As to `COc1ccc(C2=Nn3c(nnc3-c3ccccc3OC)SC2)cc1` [Entry 55], where the note is “normalized to SDF-1”, the Emax lay in the range of 35 to 70%. The EC50 under setting [1] was < 5 µM.

For the compound `COc1ccc(OC)c(-c2nnc3n2N=C(c2ccc(OC)c(OC)c2)CS3)c1` [Entry 56], where the note is “normalized to SDF-1”, the “TANGO β-arrestin Emax (%)” value is “B (35 < B < 70)”. The EC50 under setting [1] was < 5 µM.

Take `CCOc1ccccc1-c1nnc2n1N=C(c1ccc(OC)c(OC)c1)CS2` [Entry 57]: where the note is “normalized to SDF-1”, the Emax is 35 to 70%. In addition, under setting [1], the EC50 was < 5 µM.

Turning to `COc1cccc(-c2nnc3n2N=C(c2ccccc2)CS3)c1` [Entry 58], under setting [1], the EC50 was > 80 µM.

On to `COc1ccc(-c2nnc3n2N=C(c2ccccc2)CS3)cc1` [Entry 59], for which the EC50 under setting [1] was > 80 µM.

Take `COc1ccc(C2=Nn3c(nnc3-c3cccc(OC)c3)SC2)cc1` [Entry 60]: the Emax (normalized to SDF-1) was 35 to 70%. In addition, the EC50 under setting [1] was < 5 µM.

For `COc1cc(-c2nnc3n2N=C(c2ccccc2)CS3)cc(OC)c1OC` [Entry 61], the EC50 under setting [1] is > 80 µM.

In the case of `COc1cc(-c2nnc3n2N=C(c2ccc(Br)cc2)CS3)cc(OC)c1OC` [Entry 62], for the setting “normalized to SDF-1”, the “TANGO β-arrestin Emax (%)” value is on record as “B (35 < B < 70)”. For the same compound, the EC50 under setting [1] was < 5 µM.

For `COc1cccc(C2=Nn3c(nnc3-c3ccccc3OC)SC2)c1` [Entry 85], the “ß-arrestin recruitment Emax (%)” value is recorded as 40%. In addition, under setting [2], the half-maximal effective concentration (EC50) turned out to be 10.7 µM.
